Measured values as given in article PMC6510361 (Medicine and Pharmacy Reports, 2019).

What was measured:
[1] = cited from earlier work
CYP2D6 = settings: sertraline, fluvoxamine: ref 17; bupropion in vitro ref 12, in vivo ref 13; cited from earlier work
[2] = system: rat pooled liver microsomes
CYP1A2 = settings: cited from earlier work
CYP2C9 = settings: cited from earlier work

COc1cc(O)ccc1OCCNCC(O)COc1cccc2[nH]c3ccccc3c12 (centres unmarked) [4′-hydroxyphenyl carvedilol]
beta-blocking potency relative to carvedilol [1]: approximately 13 times

CC(NC(C)(C)C)C(=O)c1cccc(Cl)c1 (centres unmarked) [Bupropion, bupropion]
CYP2D6 inhibition (CYP2D6): inhibits

COCCCC/C(=N\OCCN)c1ccc(C(F)(F)F)cc1 [Fluvoxamine, fluvoxamine]
decrease of carvedilol metabolisation rate [2]: 25.19% | inhibitory potency compared with citalopram ([2]; based on metabolization rate and AUC0–30, citalopram data ref 20): stronger inhibitors than citalopram | CYP2D6 inhibition (CYP2D6): weak inhibitor | CYP1A2 inhibition (CYP1A2): strong inhibitor | CYP2C9 inhibition (CYP2C9): moderate inhibitor

CN[C@H]1CC[C@@H](c2ccc(Cl)c(Cl)c2)c2ccccc21 [Sertraline, sertraline]
decrease of carvedilol metabolisation rate [2]: 63.63% | CYP2D6 inhibition (CYP2D6): moderate inhibitor | CYP1A2 inhibition (CYP1A2): weak inhibitor | CYP2C9 inhibition (CYP2C9): weak inhibitor
